From PMC10709007, “GPR162 is a beta cell CART receptor” (iScience, 2023)
“Also recorded” adds a separate entry of the source. *1 amine or outer side, *2 acyl side, *3 side chain or, on linkers, in order; H or OH if unused. Where a SMILES comes first, the peptide text is derived from it. Bridges are numbered along the chain shown (N, C = ends). Roman numbers before positions name the chains, in order. Where no end group is shown, it is not given here. [ ]: non-standard residue; d: D form. Actinocin(9to1) = Cc1c2oc3c(C)ccc(C(=O)[*:1])c3nc-2c(C(=O)[*:2])c(N)c1=O; NMeV = CN[C@H](C(=O)O)C(C)C; Sar = CNCC(=O)O

Key:
KATO III cells = details: KATOIII cells; cited from earlier work
Source text: When studying neuropathic pain, Yosten et al.[11] found GPR160 to be necessary for CARTp-mediated cell activation in cell culture. […] Information on GPR160 is scarce, but it has been reported to be a potential marker for prostate cancer,[24] where it is involved in apoptosis and cell-cycle arrest.[25] […] Recently, the notion of GPR160 being the ...

CART receptor = details: cited from earlier work
Source text: However, much earlier, a fragment of the CART peptide was identified in extracts of sheep hypothalamus.[2] CART was later found to be expressed also in pancreatic islet cells and in nerve fibers innervating the islets.[3]^,[4]^,[5] […] Since then, multiple biological effects of CART have been established.[4]^,[7] Among them is the effect of CART on islet hormone secretion fr ...

Gpr162 mRNA = test system: Gpr162 mRNA; design: method as in PMID 24937127; details: streptozotocin-treated rats; cited from earlier work
PC12 cells = test system: PC12 cells; design: method as in PMID 21855138; details: cited from earlier work
Source text: However, much earlier, a fragment of the CART peptide was identified in extracts of sheep hypothalamus.[2] CART was later found to be expressed also in pancreatic islet cells and in nerve fibers innervating the islets.[3]^,[4]^,[5] […] Among them is the effect of CART on islet hormone secretion fr ...

INS-1 832/13 cells = test: Radioactive binding of 125I-CARTp55-102 to INS-1 832/13 cells; design: species or system rat
Description: ^125I was incorporated into the meta-position of tyrosine side chains of CARTp55-102 using oxidative iodination. 20 μL of a 300 mM phosphate buffer (pH 7.4) was used to resuspend 1 nmol of the CARTp55-102 peptide, after which 0.4 mCi ^125I (NEZ033A, PerkinElmer, Waltham, MA) was added. A volume of 30 μL 3 mg/mL Chloramine-T in phosphate buffer was added gradually while stirring over 6 min, and the reaction was quenched by adding 400 μL H2O with 0.1% trifluoroacetic acid (TFA). The radiolabeled peptide was purified by reversed-phase HPLC on a C18 column and […]. Elution fractions of 1 mL were collected and it was determined where the radiolabeled peptide eluted by measuring γ radiation intensity on a PerkinElmer 2470 Automatic Gamma Counter (PerkinElmer).
INS-1 cells were seeded to 24-well plates and transfected with Gpr162 siRNA (or control siRNA). Two days after transfection cells were assayed for competition binding for 3 h at 4°C using 10–15 p.m. ^125I CARTp55-102 or unlabeled CARTp55-102 in 0.4 mL of 50 mM HEPES buffer (pH7.4 supplemented with 1 mM CaCl2, 5 mM MgCl2 and 0.5% (w/v) bovine serum albumin). After incubation cells were washed two times in binding buffer supplemented with 0.5 M NaCl at 4°C. Non-specific binding was determined as the binding in the presence of 0.1μM unlabeled CARTp55-102.

C-peptide
Effect of GPR160 on C-peptide-induced cFOS expression (KATO III cells): GPR160 has no effect on C-peptide-induced cFOS expression

PACAP6-38: CART receptor antagonist (FTDSYSRYRKQMAVKKYLAAVLGKRYKQRVKNK; ends and bridges not checked; UniProt P18509 137-169, looked up, fragment)
CART receptor antagonism (CART receptor): acts as a CART receptor antagonist

CN(N=O)C(=O)N[C@H]1C(O)O[C@H](CO)[C@@H](O)[C@@H]1O (mixture of isomers) [streptozotocin]
Gpr162 mRNA expression, brain (Gpr162 mRNA): increased
Gpr162 mRNA expression, right ventricle of the heart and kidney (Gpr162 mRNA): reduced Gpr162 mRNA expression

C[C@@H]1C[C@@H]([C@H](O)CC2CC(=O)NC(=O)C2)C(=O)[C@@H](C)C1 [cycloheximide]
Effect on (radiolabeled) CART binding (PC12 cells): inhibited

pertussis toxin
CARTp-mediated phosphorylation of ERK (CART receptor): inhibited

radiolabeled CART peptide: radiolabeled CART of cited earlier studies in AtT20 and PC12 cells (IPIYEKKYGQVPMCDAGEQCAVRKGARIGKLCDCPRGTSCNSFLLKCL; ends and bridges not checked; also: 125I in meta-position of tyrosine side chains)
Specific binding in PC12 cells (PC12 cells): high-affinity-specific binding in PC12 cells

Cc1c2oc3c(C)ccc(C(=O)N[C@@H]4C(=O)N[C@H](C(C)C)C(=O)N5CCC[C@H]5C(=O)N(C)CC(=O)N(C)[C@@H](C(C)C)C(=O)O[C@@H]4C)c3nc-2c(C(=O)N[C@@H]2C(=O)N[C@H](C(C)C)C(=O)N3CCC[C@H]3C(=O)N(C)CC(=O)N(C)[C@@H](C(C)C)C(=O)O[C@@H]2C)c(N)c1=O [actinomycin D] (I: T[dV]P[Sar][NMeV] / II: T[dV]P[Sar][NMeV]; ester I:1-I:C, II:1-II:C; linker I:N-II:N via Actinocin(9to1))
Effect on (radiolabeled) CART binding (PC12 cells): inhibited

^125I-CARTp55-102: ^125I was incorporated into the meta-position of tyrosine side chains of CARTp55-102 using oxidative iodination (IPIYEKKYGQVPMCDAGEQCAVRKGARIGKLCDCPRGTSCNSFLLKCL; ends and bridges not checked; also: 125I in meta-position of tyrosine side chains)
Binding of 125I-CARTp55-102 after Gpr162 siRNA/KD (INS-1 832/13 cells; Gpr162 KD vs negative control, 3 h at 4°C, 2 days after transfection, n = 3, p < 0.05): binds to a lower extent to Gpr162 KD INS-1 832/13 cells; also recorded: the degree of binding was lower in cells treated with Gpr162 siRNA
Binding of 125I-CARTp55-102 to cells (INS-1 832/13 cells; competition binding 3 h at 4°C, 50 mM HEPES pH7.4, non-specific with 0.1μM unlabeled CARTp55-102, n = 3): binds to INS-1 832/13 cells
